According to US20090068290A1, “BIFEPRUNOX DOSES FOR TREATING SCHIZOPHRENIA” (priority 2006, published 2009):

Assays:
[1] = test system: adult subjects with schizophrenia; test: PANSS negative symptom subscale score, Clinical Study Three; type: in vivo, human; details: for Change from Baseline in PANSS Negative Symptom Subscale Score, Mean (SD) / Change from Baseline in PANSS Negative Symptom Subscale Score, Median / Trt Effect (bifeprunox - placebo), PANSS Negative Symptom Subscale Score / mean change (SD) from Baseline to Endpoint in PANSS Negative Symptom subscale score: LOCF; for Change from Baseline in PANSS Negative Symptom Subscale Score, Mean (SD) / Change from Baseline in PANSS Negative Symptom Subscale Score, Median / Trt Effect (bifeprunox - placebo), PANSS Negative Symptom Subscale Score: ITT population; for Trt Effect (bifeprunox - placebo), PANSS Negative Symptom Subscale Score: ANCOVA; for PANSS Negative Symptom subscale score, treatment effect (bifeprunox—placebo): Endpoint LOCF; for mean change (SD) from Baseline to Endpoint in PANSS Negative Symptom subscale score: ITT
Text: SECONDARY OBJECTIVES To assess the efficacy of bifeprunox in treating schizophrenia using the Positive Symptom sub-scale score of the PANSS, the Negative Symptom sub-scale score of the PANSS, the General Psychopathology sub-scale of the PANSS, Brief Psychiatric Rating Scale (BPRS) total score derived from the PANSS, BPRS psychosis score derived from the PANSS, the Clinical Global Impression Severity of Illness score (CGI-S), the Clinical Global Impression Improvement score (CGI-I), CGI-I responder rate, PANSS responder rate based on the PANSS total score, Calgary Depression Scale for Schizophrenia (CDSS), and Subject Satisfaction rating.
There were four treatment arms in this study, approximately 144 subjects per arm. […] After completing the Single-Blind Placebo Lead-in Period of at least three days, bifeprunox-treated subjects were titrated from 0.25 mg up to 20 mg/day or 30 mg/day according to a standardized titration scheme over a seven- or eight-day period, respectively. When the assigned dose was reached, subjects were maintained at that dose for the remainder of the six week treatment period. […] Subjects were hospitalized (if not already inpatients) after eligibility for study entry was verified, starting from the Screening Visit until at least 10 days after Baseline. Subjects could be hospitalized longer than 10 days if considered medically necessary by the Investigator. Rating scale assessments for efficacy and abnormal movement disorders were done weekly except for Week 5. […] Subject satisfaction with study medication was assessed at Week 6.

[2] = test system: adult subjects with schizophrenia; test: CGI Improvement score, Clinical Study Three; type: in vivo, human; set-up: CGI Improvement Very Much Worse, %: dose or concentration left out as unconfirmed; details: LOCF
Method: CLINICAL STUDY THREE: Table 29 below presents frequencies for the seven categories of CGI Improvement ratings by visit using LOCF for the ITT population. Statistical differences among treatment groups regarding the mean CGI Improvement score were evaluated using a CMH test stratified by pooled center applied to the frequencies of the seven CGI Improvement categories with modified ridit scores. […] The treatment comparison of the 30 mg bifeprunox group versus placebo group was not notable (p=0.162). No notable differences were observed between the placebo group and either of the two bifeprunox dose groups at any other time point during the study (Week 1 through Week 4).

[3] = Clinical laboratory assessments (prolactin), Clinical Study Three; details: bifeprunox 20, 30 mg; 6 weeks
Text: To assess the safety and tolerability of bifeprunox using physical examination, weight, waist circumference, vital signs (pulse rate and systolic/diastolic blood pressure [BP], and oral temperature), 12-lead electrocardiogram (ECG), clinical laboratory assessments (hematology, biochemistry including fasting insulin level, fasting glucose, fasting lipid profile, urinalysis, special laboratory assessments for prolactin, IGF-1, IGFBP-3, and thyroid function), need for anticholinergic treatment during double-blind treatment period, concomitant medication use, adverse event (AE) monitoring, and assessments of abnormal movement including the Simpson-Angus Scale (SAS), Barnes Akathisia Scale (BAS), and Abnormal Involuntary Movement Scale (AIMS).

[4] = Bifeprunox 20 mg, Week 6/Endpoint
[5] = Bifeprunox 30 mg, Week 6/Endpoint

Which results are given for `O=c1[nH]c2cccc(N3CCN(Cc4cccc(-c5ccccc5)c4)CC3)c2o1` [Bifeprunox, 7-[4-([1,1′-biphenyl]-3-ylmethyl)-1-piperazinyl]-2(3H)-benzoxazolone]?
Change from Baseline in PANSS Negative Symptom Subscale Score, Mean (SD) [1, 4]: −3.3 (5.0); Change from Baseline in PANSS Negative Symptom Subscale Score, Median [1, 4]: −3; Trt Effect (bifeprunox - placebo), PANSS Negative Symptom Subscale Score [1, 4]: −0.9; Change from Baseline in PANSS Negative Symptom Subscale Score, Mean (SD) ([1]; Bifeprunox 30 mg, Week 1): −1.3 (4.0); Change from Baseline in PANSS Negative Symptom Subscale Score, Median ([1]; Bifeprunox 30 mg, Week 1): −1; Change from Baseline in PANSS Negative Symptom Subscale Score, Mean (SD) ([1]; Bifeprunox 30 mg, Week 2): −1.9 (4.3); Change from Baseline in PANSS Negative Symptom Subscale Score, Median ([1]; Bifeprunox 30 mg, Week 2): −1; Change from Baseline in PANSS Negative Symptom Subscale Score, Mean (SD) ([1]; Bifeprunox 30 mg, Week 3): −2.5 (4.8); Change from Baseline in PANSS Negative Symptom Subscale Score, Median ([1]; Bifeprunox 30 mg, Week 3): −2; Change from Baseline in PANSS Negative Symptom Subscale Score, Mean (SD) ([1]; Bifeprunox 30 mg, Week 4): −2.6 (5.0); Change from Baseline in PANSS Negative Symptom Subscale Score, Median ([1]; Bifeprunox 30 mg, Week 4): −2; Change from Baseline in PANSS Negative Symptom Subscale Score, Mean (SD) [1, 5]: −3.1 (5.2); Change from Baseline in PANSS Negative Symptom Subscale Score, Median [1, 5]: −2; Trt Effect (bifeprunox - placebo), PANSS Negative Symptom Subscale Score [1, 5]: −0.6; PANSS Negative Symptom subscale score, treatment effect (bifeprunox—placebo) ([1]; bifeprunox 20 mg): −0.9; mean change (SD) from Baseline to Endpoint in PANSS Negative Symptom subscale score ([1]; bifeprunox 20 mg): −3.3 (5.0); PANSS Negative Symptom subscale score, treatment effect (bifeprunox—placebo) ([1]; bifeprunox 30 mg): −0.6; mean change (SD) from Baseline to Endpoint in PANSS Negative Symptom subscale score ([1]; bifeprunox 30 mg): −3.1 (5.2); CGI Improvement Minimally Improved, % ([2]; 30 mg, Week 2): (45%); CGI Improvement Minimally Worse, % ([2]; 30 mg, Week 2): (9%); CGI Improvement Much Improved, % ([2]; 30 mg, Week 2): (21%); CGI Improvement Much Worse, % ([2]; 30 mg, Week 2): (4%); CGI Improvement No Change, % ([2]; 30 mg, Week 2): (19%); CGI Improvement Very Much Improved, % ([2]; 30 mg, Week 2): (2%); CGI Improvement Minimally Improved, % ([2]; 30 mg, Week 4): (30%); CGI Improvement Minimally Worse, % ([2]; 30 mg, Week 4): (11%); CGI Improvement Much Improved, % ([2]; 30 mg, Week 4): (32%); CGI Improvement Much Worse, % ([2]; 30 mg, Week 4): (6%); CGI Improvement No Change, % ([2]; 30 mg, Week 4): (17%); CGI Improvement Very Much Improved, % ([2]; 30 mg, Week 4): (5%); CGI Improvement Minimally Improved, % ([2]; 30 mg, Week 6/Endpoint): (28%); CGI Improvement Minimally Worse, % ([2]; 30 mg, Week 6/Endpoint): (13%); CGI Improvement Much Improved, % ([2]; 30 mg, Week 6/Endpoint): (33%); CGI Improvement Much Worse, % ([2]; 30 mg, Week 6/Endpoint): (7%); CGI Improvement No Change, % ([2]; 30 mg, Week 6/Endpoint): (15%); CGI Improvement Very Much Improved, % ([2]; 30 mg, Week 6/Endpoint): (5%); CGI Improvement Minimally Improved, % ([2]; 40 mg, Week 2): (37%); CGI Improvement Minimally Worse, % ([2]; 40 mg, Week 2): (7%); CGI Improvement Very Much Improved, % ([2]; 40 mg, Week 2): (<1%.); CGI Improvement Minimally Improved, % ([2]; 40 mg, Week 4): (29%); CGI Improvement Minimally Worse, % ([2]; 40 mg, Week 4): (8%); CGI Improvement Very Much Improved, % ([2]; 40 mg, Week 4): (3%); CGI Improvement Minimally Improved, % ([2]; 40 mg, Week 6/Endpoint): (30%); CGI Improvement Minimally Worse, % ([2]; 40 mg, Week 6/Endpoint): (8%); CGI Improvement Very Much Improved, % ([2]; 40 mg, Week 6/Endpoint): (7%); CGI Improvement Much Improved, % ([2]; Week 2): (19%); CGI Improvement Much Worse, % ([2]; Week 2): (10%); CGI Improvement No Change, % ([2]; Week 2): (22%); CGI Improvement Very Much Worse, % ([2]; Week 2): (<1%); CGI Improvement Much Improved, % ([2]; Week 4): (30%); CGI Improvement Much Worse, % ([2]; Week 4): (11%); CGI Improvement No Change, % ([2]; Week 4): (17%); CGI Improvement Very Much Worse, % ([2]; Week 4): (1%); CGI Improvement Much Improved, % ([2]; Week 6/Endpoint): (27%); CGI Improvement Much Worse, % ([2]; Week 6/Endpoint): (11%); CGI Improvement No Change, % ([2]; Week 6/Endpoint): (16%); CGI Improvement Very Much Worse, % ([2]; Week 6/Endpoint): (1%); prolactin [3]: a decrease in prolactin
